According to the NIST ThermoML archive (doi:10.1016/j.jct.2013.11.005):
Numbers after ± are expanded uncertainties.

Conditions: for viscosity / mass density: 101.33 kPa, Liquid; for viscosity: Falling or rolling sphere viscometry; for mass density: Vibrating tube method; for surface tension liquid-gas: Pendant drop shape

Row | viscosity (293.15 K) | mass density (293.15 K) | surface tension liquid-gas (298.15 K) | viscosity (298.15 K) | mass density (298.15 K) | surface tension liquid-gas (303.15 K) | viscosity (303.15 K) | mass density (303.15 K) | surface tension liquid-gas (313.15 K) | viscosity (313.15 K) | mass density (313.15 K) | surface tension liquid-gas (323.15 K) | viscosity (323.15 K) | mass density (323.15 K) | viscosity (333.15 K) | mass density (333.15 K) | viscosity (343.15 K) | mass density (343.15 K) | viscosity (353.15 K) | mass density (353.15 K) | SMILES
1 | 76.08 ± 2 mPa·s | 1073.99 ± 0.99 kg/m3 | 47 ± 0.7 mN/m | 59.81 ± 1.4 mPa·s | 1071.04 ± 0.98 kg/m3 | 46.6 ± 0.7 mN/m | 47.84 ± 1.1 mPa·s | 1068.08 ± 0.98 kg/m3 | 45.7 ± 0.7 mN/m | 32.2 ± 0.77 mPa·s | 1062.21 ± 0.97 kg/m3 | 44.8 ± 0.7 mN/m | 22.97 ± 0.54 mPa·s | 1056.39 ± 0.95 kg/m3 | 17.12 ± 0.4 mPa·s | 1050.61 ± 0.94 kg/m3 | 13.2 ± 0.31 mPa·s | 1044.87 ± 0.93 kg/m3 | 10.5 ± 0.25 mPa·s | 1039.17 ± 0.92 kg/m3 | CCCCn1cc[n+](C)c1.N#C[S-] [1-butyl-3-methylimidazolium thiocyanate]
2 | 28.27 ± 0.67 mPa·s | 1120.02 ± 1.1 kg/m3 | 54.1 ± 0.8 mN/m | 23.79 ± 0.56 mPa·s | 1116.97 ± 1.1 kg/m3 | 53.6 ± 0.8 mN/m | 20.25 ± 0.48 mPa·s | 1113.91 ± 1.1 kg/m3 | 52.9 ± 0.8 mN/m | 15.13 ± 0.36 mPa·s | 1107.95 ± 1.1 kg/m3 | 52.1 ± 0.8 mN/m | 11.73 ± 0.28 mPa·s | 1101.84 ± 1.1 kg/m3 | 9.36 ± 0.22 mPa·s | 1095.89 ± 1 kg/m3 | 7.65 ± 0.18 mPa·s | 1089.98 ± 1 kg/m3 | 6.38 ± 0.15 mPa·s | 1084.12 ± 1 kg/m3 | CCn1cc[n+](C)c1.N#C[S-] [1-ethyl-3-methylimidazolium thiocyanate]
